Values of other authors in patent US20260185050A1, “BIOLOGIC INTERFACIAL TISSUE-ENGINEERED SYSTEMS USEFUL AS ARTHROPOD BITEMODEL” (UNIVERSITY OF CENTRAL FLORIDA RESEARCH FOUNDATION, INC., priority 2022, published 2026).

Tests used:
[1] = C5 epimers of alginate
Culex pipiens = conditions: select experiments
Aedes aegypti = conditions: selective dose response work, males and females
Aedes albopictus = conditions: selective dose response work, males and females

Row | Compound | pKa [1] | kill performance versus erythritol (Culex pipiens) | kill performance versus erythritol (Aedes aegypti) | kill performance versus erythritol (Aedes albopictus)
1 | O=C(O)[C@@H]1O[C@@H](O)[C@@H](O)[C@@H](O)[C@@H]1O [G, α-L-guluronate] | 3.65 | – | – | –
2 | O=C(O)[C@H]1O[C@@H](O)[C@@H](O)[C@@H](O)[C@@H]1O [M, β-D-mannuronate] | 3.38 | – | – | –
3 | CC(O)CO (centres unmarked) [propylene glycol] | – | outperform erythritol | outperform erythritol | outperform erythritol
